The source of these data is PubChem BioAssay AID190 (DTP/NCI, 2004).

Each structure is given as a SMILES string. “And” between values parts separate entries of the source, which are not always exact repeats. Identical values can stand only once. Inconclusive results and toxic doses are left out.

The assay concerns AKR/Lw mice, AKR lymphoma ip, median survival T/C. In words: NCI In Vivo Anticancer Drug Screen. Data for tumor model Lymphoma AKR (Transplanted) (intraperitoneal) in AKR/Lw mice. Particulars: endpoint: median survival time, higher = longer survival. On the procedure: The antitumor activity of compounds was measured in mice bearing transplantable tumors. Survival or tumor size were measured and the results are expressed as the measurement made in the treated group (T) divided by the measurement made in the vehicle treated control group (C). The tumor model used in this assay is Lymphoma AKR (Transplanted) (intraperitoneal) in AKR/Lw mice

Where [1] appears, read: dose: 50.0 mg/kg/injection, schedule: Q01DX001 (ip), vehicle: saline.
The mark [2] stands for this setting: dose: 75.0 mg/kg/injection, schedule: Q01DX009 (ip), vehicle: saline.
The mark [3] stands for this setting: dose: 100.0 mg/kg/injection, schedule: Q01DX001 (ip), vehicle: saline.
The mark [4] stands for this setting: dose: 200.0 mg/kg/injection, schedule: Q01DX001 (ip), vehicle: saline.
Setting [5] is: dose: 100.0 mg/kg/injection, schedule: Q01DX001 (ip), vehicle: Klucel (hydroxypropylcellulose) (HPC).
Setting [6] is: dose: 100.0 mg/kg/injection, schedule: Q04DX003 (ip), vehicle: Klucel (hydroxypropylcellulose) (HPC).
Setting [7] is: dose: 200.0 mg/kg/injection, schedule: Q01DX001 (ip), vehicle: Klucel (hydroxypropylcellulose) (HPC).
The mark [8] stands for this setting: dose: 200.0 mg/kg/injection, schedule: Q04DX003 (ip), vehicle: Klucel (hydroxypropylcellulose) (HPC).
Setting [9] is: dose: 400.0 mg/kg/injection, schedule: Q04DX003 (ip), vehicle: Klucel (hydroxypropylcellulose) (HPC).
The mark [10] stands for this setting: dose: 400.0 mg/kg/injection, schedule: Q01DX001 (ip), vehicle: Klucel (hydroxypropylcellulose) (HPC).
[11] abbreviates: dose: 400.0 mg/kg/injection, schedule: Q01DX001 (ip), vehicle: saline.

On to `O=C[C@@H](CO)O[C@H](C=O)n1cnc2c(=O)[nH]cnc21`, for which the T/C is 104 % of control and 123 % of control (dose: 3.0 mg/kg/injection, schedule: Q01DX009 (ip), vehicle: saline); 102 % of control and 108 % of control and 121 % of control (dose: 6.0 mg/kg/injection, schedule: Q01DX009 (ip), vehicle: saline); 102 % of control (dose: 6.2 mg/kg/injection, schedule: Q04DX003 (ip), vehicle: saline); 112 % of control (dose: 6.25 mg/kg/injection, schedule: Q01DX009 (ip), vehicle: saline); 100 % of control and 112 % of control (dose: 12.0 mg/kg/injection, schedule: Q01DX009 (ip), vehicle: saline); 94 % of control and 106 % of control (dose: 12.5 mg/kg/injection, schedule: Q01DX009 (ip), vehicle: saline). Moreover, the T/C was 100 % of control and 105 % of control (dose: 12.5 mg/kg/injection, schedule: Q04DX003 (ip), vehicle: saline); 112 % of control (dose: 24.0 mg/kg/injection, schedule: Q01DX009 (ip), vehicle: saline); 89 % of control and 105 % of control (dose: 25.0 mg/kg/injection, schedule: Q01DX001 (ip), vehicle: saline); 87 % of control and 113 % of control (dose: 25.0 mg/kg/injection, schedule: Q04DX003 (ip), vehicle: saline); 89 % of control under setting [1]; 114 % of control (dose: 60.0 mg/kg/injection, schedule: Q04DX003 (ip), vehicle: water). For the same compound, the T/C under setting [2] is 103 % of control and 238 % of control; the T/C under setting [3] is 92 % of control and 97 % of control (2×); the T/C (dose: 240.02 mg/kg/injection, schedule: Q04DX003 (ip), vehicle: water) was 222 % of control; the T/C (dose: 500.0 mg/kg/injection, schedule: Q01DX001 (ip), vehicle: saline) is 120 % of control.
Turning to `C[N+]1(C)Cc2ccccc2-c2ccccc2C1`, the T/C under setting [1] is 94 % of control.
With `c1ccc(C[N+](Cc2ccccc2)=C2CCCCC2)cc1`, the T/C is, setting by setting: under setting [3], 111 % of control; under setting [4], 114 % of control.
In the case of `c1cc2cc3c(cc2c2c1CC1c4cc5c(cc4CCN1C2)OCO5)OCO3` (centres undefined), the T/C is 102 % of control under setting [5]; 103 % of control under setting [6]; 97 % of control under setting [7]; 96 % of control under setting [8]; 92 % of control under setting [9].
Regarding `ClCCCNCc1ccccc1`, the T/C under setting [3] was 94 % of control.
On to `COC(=O)C1CC(=O)C2(C)CCc3c(ccc4cc(OC)ccc34)C12` (centres undefined), for which the T/C runs as follows: (dose: 100.0 mg/kg/injection, schedule: Q01DX001 (sc), vehicle: steriod suspending solution) 109 % of control; (dose: 200.0 mg/kg/injection, schedule: Q01DX001 (sc), vehicle: steriod suspending solution) 104 % of control.
In the case of `c1cc2cc3c(cc2cc1CC1=NCCc2cc4c(cc21)OCO4)OCO3`, the T/C (dose: 100.0 mg/kg/injection, schedule: Q01DX001 (ip), vehicle: other) is 105 % of control; the T/C (dose: 100.0 mg/kg/injection, schedule: Q04DX003 (ip), vehicle: other) was 100 % of control; the T/C (dose: 200.0 mg/kg/injection, schedule: Q01DX001 (ip), vehicle: other) is 100 % of control; the T/C (dose: 200.0 mg/kg/injection, schedule: Q04DX003 (ip), vehicle: other) is 100 % of control; the T/C (dose: 400.0 mg/kg/injection, schedule: Q01DX001 (ip), vehicle: other) is 102 % of control; the T/C (dose: 400.0 mg/kg/injection, schedule: Q04DX003 (ip), vehicle: other) is 100 % of control.
With `S=c1nc[nH]c2nc[nH]c12`, the T/C runs as follows: (dose: 6.25 mg/kg/injection, schedule: Q01DX015 (ip), vehicle: Klucel (hydroxypropylcellulose) (HPC)) 110 % of control; (dose: 10.0 mg/kg/injection, schedule: Q01DX009 (ip), vehicle: saline) 94 % of control; (dose: 12.5 mg/kg/injection, schedule: Q01DX015 (ip), vehicle: Klucel (hydroxypropylcellulose) (HPC)) 100 % of control; (dose: 20.0 mg/kg/injection, schedule: Q01DX009 (ip), vehicle: saline) 94 % of control and 102 % of control and 105 % of control; (dose: 25.0 mg/kg/injection, schedule: Q01DX015 (ip), vehicle: Klucel (hydroxypropylcellulose) (HPC)) 100 % of control; (dose: 30.0 mg/kg/injection, schedule: Q01DX001 (ip), vehicle: saline) 104 % of control and 109 % of control and 112 % of control. For the same compound, the T/C (dose: 30.0 mg/kg/injection, schedule: Q01DX009 (ip), vehicle: saline) is 100 % of control; the T/C (dose: 30.0 mg/kg/injection, schedule: Q04DX003 (ip), vehicle: saline) is 102 % of control; the T/C (dose: 37.5 mg/kg/injection, schedule: Q01DX009 (ip), vehicle: saline) was 104 % of control; the T/C (dose: 40.0 mg/kg/injection, schedule: Q01DX009 (ip), vehicle: saline) is 94 % of control and 97 % of control and 113 % of control; the T/C (dose: 50.0 mg/kg/injection, schedule: Q01DX009 (ip), vehicle: Klucel (hydroxypropylcellulose) (HPC)) was 100 % of control; the T/C (dose: 50.0 mg/kg/injection, schedule: Q01DX009 (ip), vehicle: saline) is 120 % of control. Besides, the T/C reads like this: (dose: 50.0 mg/kg/injection, schedule: Q01DX015 (ip), vehicle: Klucel (hydroxypropylcellulose) (HPC)) 92 % of control and 93 % of control; (dose: 50.0 mg/kg/injection, schedule: Q04DX003 (ip), vehicle: saline) 100 % of control; (dose: 60.0 mg/kg/injection, schedule: Q01DX001 (ip), vehicle: saline) 97 % of control and 111 % of control and 113 % of control; (dose: 60.0 mg/kg/injection, schedule: Q01DX009 (ip), vehicle: saline) 96 % of control; (dose: 60.0 mg/kg/injection, schedule: Q04DX003 (ip), vehicle: saline) 119 % of control; (dose: 75.0 mg/kg/injection, schedule: Q01DX001 (ip), vehicle: saline) 113 % of control. In addition, the T/C by setting is: under setting [2], 109 % of control; (dose: 80.0 mg/kg/injection, schedule: Q01DX009 (ip), vehicle: saline) 94 % of control and 123 % of control; under setting [5], 96 % of control; (dose: 100.0 mg/kg/injection, schedule: Q01DX009 (ip), vehicle: Klucel (hydroxypropylcellulose) (HPC)) 90 % of control; (dose: 100.0 mg/kg/injection, schedule: Q01DX009 (ip), vehicle: saline) 93 % of control; under setting [6], 97 % of control and 100 % of control and 108 % of control. Further, the T/C is 102 % of control and 123 % of control (dose: 100.0 mg/kg/injection, schedule: Q04DX003 (ip), vehicle: saline); 93 % of control and 104 % of control and 222 % of control (dose: 120.0 mg/kg/injection, schedule: Q01DX001 (ip), vehicle: saline); 100 % of control (dose: 120.0 mg/kg/injection, schedule: Q04DX003 (ip), vehicle: saline); 102 % of control and 112 % of control (dose: 150.0 mg/kg/injection, schedule: Q01DX001 (ip), vehicle: Klucel (hydroxypropylcellulose) (HPC)); 100 % of control (dose: 150.0 mg/kg/injection, schedule: Q01DX009 (ip), vehicle: saline); 100 % of control (dose: 175.0 mg/kg/injection, schedule: Q01DX001 (ip), vehicle: Klucel (hydroxypropylcellulose) (HPC)). The T/C under setting [4] was 104 % of control; the T/C (dose: 200.0 mg/kg/injection, schedule: Q01DX009 (ip), vehicle: saline) was 110 % of control; the T/C under setting [8] is 90 % of control; the T/C (dose: 200.0 mg/kg/injection, schedule: Q04DX003 (ip), vehicle: saline) is 90 % of control; the T/C (dose: 300.0 mg/kg/injection, schedule: Q01DX001 (ip), vehicle: Klucel (hydroxypropylcellulose) (HPC)) is 106 % of control; the T/C (dose: 300.0 mg/kg/injection, schedule: Q01DX001 (ip), vehicle: saline) was 119 % of control. Also, the T/C by setting is: under setting [10], 113 % of control; under setting [11], 102 % of control; under setting [9], 121 % of control; (dose: 600.0 mg/kg/injection, schedule: Q01DX001 (ip), vehicle: Klucel (hydroxypropylcellulose) (HPC)) 115 % of control.
For `CCCCCCCC(=O)NCCCC`, the T/C reads like this: under setting [5], 96 % of control; under setting [7], 96 % of control; under setting [10], 92 % of control.
Regarding `NCCCC(=O)O`, the T/C was 93 % of control under setting [3], 95 % of control under setting [4] and 95 % of control under setting [11].
With `O=c1[nH]cc(-c2ccccc2)c(=O)[nH]1`, the T/C is, setting by setting: under setting [3], 94 % of control; under setting [4], 88 % of control; under setting [11], 97 % of control.
For the compound `CN(C)CCCNC(=O)Nc1ccccc1`, the T/C is 103 % of control under setting [5] and 93 % of control under setting [7].
